According to patent publication US6653300B2, “Pyrazole compounds useful as protein kinase inhibitors” (Vertex Pharmaceuticals Incorporated, priority 2000, dated 2003):
Read-outs that look alike come from different tables or passages of the source.

What was measured:
human Src kinase = molecular target: T1, human Src kinase (Homo sapiens, UniProt P12931); assay: SRC inhibition assay (radioactivity-based or spectrophotometric assay); type: biochemical; conditions: recombinant human Src kinase, assay A or B
T1 construct: full length recombinant human Src kinase (from Upstate Biotechnology, cat. no. 14-117); purchased Upstate Biotechnology 14-117; host or cells: baculo viral cells
Method: The compounds were evaluated as inhibitors of human Src kinase using either a radioactivity-based assay or spectrophotometric assay. The compounds were assayed as inhibitors of full length recombinant human Src kinase (from Upstate Biotechnology, cat. no. 14-117) expressed and purified from baculo viral cells. […] P-0275). […] In a typical assay, all the reaction components with the exception of ATP were pre-mixed and aliquoted into assay plate wells. […] The assay plate was incubated at 30° C. for 10 min before initiating the reaction with ^33P-ATP. After 20 min of reaction, the reactions were quenched with 150 μl of 10% trichloroacetic acid (TCA) containing 20 mM Na3PO4. The quenched samples were then transferred to a 96-well filter plate (Whatman, UNI-Filter GF/F Glass Fiber Filter, cat no. 7700-3310) installed on a filter plate vacuum manifold. Filter plates were washed four times with 10% TCA containing 20 mM Na3PO4 and then 4 times with methanol. 200 μl of scintillation fluid was then added to each well. The plates were sealed and the amount of radioactivity associated with the filters was quantified on a TopCount scintillation counter. The radioactivity incorporated was plotted as a function of the inhibitor concentration. The data was fitted to a competitive inhibition kinetics model to get the Ki for the compound. The ADP produced from ATP by the human recombinant Src kinase-catalyzed phosphorylation of poly Glu-Tyr substrate was quanitified using a coupled enzyme assay (Fox et al (1998) Protein Sci 7, 2249). In this assay one molecule of NADH is oxidised to NAD for every molecule of ADP produced in the kinase reaction. The disappearance of NADH can be conveniently followed at 340 nm. […] In a typical assay, all the reaction components with the exception of ATP were pre-mixed and aliquoted into assay plate wells. […] The absorbance change at 340 nm with time, the rate of the reaction, was monitored on a molecular devices plate reader. The data of rate as a function of the inhibitor concentration was fitted to competitive inhibition kinetics model to get the Ki for the compound.

Aurora-2 = molecular target: T2, Aurora-2 (Homo sapiens, UniProt O14965); assay: Ki determination for the inhibition of Aurora-2 (coupled enzyme assay); type: biochemical; conditions: 70 nM Aurora-2, 30° C.
T2 sequence (O14965 1-403): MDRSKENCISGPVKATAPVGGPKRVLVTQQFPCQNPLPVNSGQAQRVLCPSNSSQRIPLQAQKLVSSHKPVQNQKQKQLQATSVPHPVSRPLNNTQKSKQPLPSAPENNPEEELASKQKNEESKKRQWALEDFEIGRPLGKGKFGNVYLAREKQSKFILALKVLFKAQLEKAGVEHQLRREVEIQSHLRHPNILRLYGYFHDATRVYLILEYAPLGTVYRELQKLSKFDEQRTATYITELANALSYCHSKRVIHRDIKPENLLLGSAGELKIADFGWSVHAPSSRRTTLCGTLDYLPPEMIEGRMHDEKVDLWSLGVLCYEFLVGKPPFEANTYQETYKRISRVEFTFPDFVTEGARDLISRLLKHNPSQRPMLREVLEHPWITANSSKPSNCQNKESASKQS
Method in brief: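 Ki came from reaction rates plotted against inhibitor concentration, with rates taken as A340 decrease over 5 min at 30° C. Enzyme (70 nM final) was added after 10 min compound preincubation; stock buffer held […], 800 μM LRRASLG, PK/LDH coupling, pH 7.5.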

GSK-3β (AA 1-420) = molecular target: T3, GSK-3β (AA 1-420) (Homo sapiens, UniProt P49841); assay: Ki determination for the inhibition of GSK-3 (coupled enzyme system); type: biochemical; conditions: 20 μM ATP, 20 nM GSK-3β, 30° C.
T3 construct: GSK-3β (AA 1-420)
Method in brief: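 GSK-3β (AA 1-420, 20 nM) was run in a pyruvate kinase/LDH-coupled NADH assay in 100 mM HEPES pH 7.5, 10 mM MgCl2, 25 mM NaCl, 1 mM DTT, 1.5% DMSO, with 300 μM phosphopeptide substrate. Compound (0.002–30 μM) was preincubated 10 min at 30° C, then 20 μM ATP was added.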

T3 sequence (P49841 whole entry, the tested form may be a part): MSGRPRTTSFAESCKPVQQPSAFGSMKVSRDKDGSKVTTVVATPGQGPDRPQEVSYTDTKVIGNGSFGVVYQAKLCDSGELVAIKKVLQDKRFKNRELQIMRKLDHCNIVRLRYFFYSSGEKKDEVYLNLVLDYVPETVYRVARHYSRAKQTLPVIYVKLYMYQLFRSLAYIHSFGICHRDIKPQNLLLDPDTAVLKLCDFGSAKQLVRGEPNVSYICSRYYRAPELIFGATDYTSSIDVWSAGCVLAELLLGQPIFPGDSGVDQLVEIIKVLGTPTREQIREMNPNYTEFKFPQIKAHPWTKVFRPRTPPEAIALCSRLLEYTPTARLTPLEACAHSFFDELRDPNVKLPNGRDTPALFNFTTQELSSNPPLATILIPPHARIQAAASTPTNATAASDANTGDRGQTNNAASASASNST
T1 sequence (P12931 whole entry): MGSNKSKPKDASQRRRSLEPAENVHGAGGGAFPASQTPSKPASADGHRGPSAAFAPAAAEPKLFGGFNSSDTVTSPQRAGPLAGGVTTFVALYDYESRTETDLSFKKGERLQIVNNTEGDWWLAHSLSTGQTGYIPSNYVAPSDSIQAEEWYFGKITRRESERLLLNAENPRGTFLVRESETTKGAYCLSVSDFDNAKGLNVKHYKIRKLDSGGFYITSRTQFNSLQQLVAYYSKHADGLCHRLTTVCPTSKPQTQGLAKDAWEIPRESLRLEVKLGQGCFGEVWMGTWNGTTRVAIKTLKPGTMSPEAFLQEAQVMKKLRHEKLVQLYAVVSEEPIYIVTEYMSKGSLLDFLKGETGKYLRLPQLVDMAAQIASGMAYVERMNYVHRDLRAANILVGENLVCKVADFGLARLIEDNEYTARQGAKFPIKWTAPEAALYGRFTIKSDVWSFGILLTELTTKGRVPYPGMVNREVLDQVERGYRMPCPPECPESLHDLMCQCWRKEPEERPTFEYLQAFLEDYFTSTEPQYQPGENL

| SMILES | Ki (human Src kinase; read-out: Ki value on SRC) | Ki (Aurora-2) | Ki (GSK-3β (AA 1-420)) | melting point | Ki (human Src kinase; read-out: Ki value for SRC) |
| --- | --- | --- | --- | --- | --- |
| CN(Cc1cccnc1)c1nc(Nc2cc(C3CC3)[nH]n2)c2ccccc2n1 [IIc-3] | < 100 nM | < 100 nM | < 100 nM | 177 °C |  |
| CC(=O)Nc1ccc(Sc2nc(Nc3cc(C)[nH]n3)c3ccc(O)cc3n2)cc1 [IIa-74, [2-(4-Acetamidophenylsulfanyl)-7-hydroxy-quinazolin-4-yl]-(5-methyl-2H-pyrazol-3-yl)-amine] |  | < 100 nM | 1000 to 7000 nM | 246 to 248 °C | 1000 to 6000 nM |
| Cc1cc(Nc2nc(NCC3CCCCC3)nc3ccccc23)n[nH]1 [IIc-8, (2-Cyclohexylmethylamino-quinazolin-4-yl)-(5-methyl-2H-pyrazol-3-yl)-amine] | < 100 nM | < 100 nM | < 100 nM | 211 °C |  |
| c1ccc2cc(Oc3nc(Nc4cc(C5CC5)[nH]n4)c4ccccc4n3)ccc2c1 [IIb-1, (5-Cyclopropyl-2H-pyrazol-3-yl)-[2-(naphthalen-2-yloxy)-quinazolin-4-yl]-amine] | < 100 nM | < 100 nM | < 100 nM | 327 to 328 °C |  |
| Cc1cc(Nc2nc(NCc3cccnc3)nc3ccccc23)n[nH]1 [IIc-10, (5-Methyl-2H-pyrazol-3-yl)-[2-(pyridin-3-ylmethylamino)-quinazolin-4-yl]-amine] | < 100 nM | < 100 nM | < 100 nM | 218 °C |  |
| c1cncc(CNc2nc(Nc3cc(C4CC4)[nH]n3)c3ccccc3n2)c1 [IIc-38, (5-Cyclopropyl-2H-pyrazol-3-yl)-[2-(pyridin-3-ylmethylamino)-quinazolin-4-yl]-amine] | < 100 nM | < 100 nM | < 100 nM | 193 °C |  |
| CCS(=O)(=O)Nc1ccc(Sc2nc(Nc3cc(C)[nH]n3)c3ccccc3n2)cc1 [IIa-55, [2-(4-Ethylsulfonylamino-phenylsulfanyl)-quinazolin-4-yl]-(5-methyl-2H-pyrazol-3-yl)-amine] |  | < 100 nM | 100 to 1000 nM | 279 to 280 °C | 1000 to 6000 nM |
| Cc1ccc(Cl)c(Nc2nc(Nc3cc(C)[nH]n3)c3ccccc3n2)c1 [IIc-51, [2-(2-Chloro-5-methylphenylamino)-quinazolin-4-yl]-(5-methyl-2H-pyrazol-3-yl)-amine] | < 100 nM | < 100 nM | 100 to 1000 nM | 246 to 247 °C |  |
| COc1ccc(Nc2nc(Nc3cc(C4CC4)[nH]n3)c3ccccc3n2)cc1OC [IIc-43, (5-Cyclopropyl-2H-pyrazol-3-yl)-[2-(3,4-dimethoxyphenylamino)-quinazolin-4-yl]-amine] | < 100 nM | < 100 nM | 100 to 1000 nM | 144 °C |  |
| c1ccc(Sc2nc(Nc3cc(C4CC4)[nH]n3)c3ccccc3n2)cc1 [IIa-21, (5-Cyclopropyl-2H-pyrazol-3-yl)-(2-phenylsulfanyl-quinazolin-4-yl)-amine] | < 100 nM | < 100 nM | < 100 nM | 233 to 236 °C |  |
| Clc1ccccc1Sc1nc(Nc2cc(C3CC3)[nH]n2)c2ccccc2n1 [IIa-32, [2-(2-Chlorophenylsulfanyl)-quinazolin-4-yl]-(5-cyclopropyl-2H-pyrazol-3-yl)-amine] | < 100 nM | < 100 nM | < 100 nM | 255 to 257 °C |  |
| Fc1ccc(Sc2nc(Nc3cc(C4CC4)[nH]n3)c3ccccc3n2)c(F)c1 [IIa-28, (5-Cyclopropyl-2H-pyrazol-3-yl)-[2-(2,4-difluorophenylsulfanyl)-quinazolin-4-yl]-amine] | < 100 nM | < 100 nM | < 100 nM | 250 to 253 °C |  |
| CC(=O)Nc1ccc(Nc2nc(Nc3cc(C4CC4)[nH]n3)c3ccccc3n2)cc1C [IIc-23, [2-(4-Acetamido-3-methylphenylamino)-quinazolin-4-yl]-(5-cyclopropyl-2H-pyrazol-3-yl)-amine] | < 100 nM | < 100 nM | 100 to 1000 nM | > 188 °C (dec.) |  |
| c1ccc(COCc2nc(Nc3cc(C4CC4)[nH]n3)c3ccccc3n2)cc1 [IId-2, (2-Benzyloxymethyl-quinazolin-4-yl)-(5-cyclopropyl-2H-pyrazol-3-yl)-amine] | < 100 nM | < 100 nM | 100 to 1000 nM | 211 to 213 °C |  |
| Clc1cccc(Sc2nc(Nc3cc(C4CC4)[nH]n3)c3ccccc3n2)c1Cl [IIa-30, (5-Cyclopropyl-2H-pyrazol-3-yl)-[2-(2,3-dichlorophenylsulfanyl)-quinazolin-4-yl]-amine] | < 100 nM | < 100 nM | < 100 nM | 250 to 252 °C |  |
| CNCC(=O)Nc1ccc(Sc2nc(Nc3cc(C)[nH]n3)c3ccccc3n2)cc1 [IIa-77, {2-[4-(2-Methylamino-acetylamino)-phenylsulfanyl]-quinazolin-4-yl}-(5-methyl-2H-pyrazol-3-yl)-amine] |  | < 100 nM | 1000 to 7000 nM | 242 to 244 °C | 1000 to 6000 nM |
| Cc1cccc(Oc2nc(Nc3cc(C4CC4)[nH]n3)c3ccccc3n2)c1 [IIb-5, (5-Cyclopropyl-2H-pyrazol-3-yl)-[2-(3-methylphenoxy)-quinazolin-4-yl]-amine] | < 100 nM | < 100 nM | < 100 nM | 283 to 284 °C |  |
| c1csc(CNc2nc(Nc3cc(C4CC4)[nH]n3)c3ccccc3n2)c1 [IIc-35, (5-Cyclopropyl-2H-pyrazol-3-yl)-[2-(thiophen-2-methylamino)-quinazolin-4-yl]-amine] | < 100 nM | < 100 nM | < 100 nM | 212 °C |  |
| Clc1cccc(Sc2nc(Nc3cc(C4CC4)[nH]n3)c3ccccc3n2)c1 [IIa-31, [2-(3-Chlorophenylsulfanyl)-quinazolin-4-yl]-(5-cyclopropyl-2H-pyrazol-3-yl)-amine] | < 100 nM | < 100 nM | < 100 nM | 235 to 238 °C |  |
| Cc1cc(Nc2nc(Nc3ccc(N)cc3)nc3ccccc23)n[nH]1 [IIc-66, [2-(4-Aminophenylamino)-quinazolin-4-yl]-(5-methyl-2H-pyrazol-3-yl)-amine] |  | 100 to 1000 nM | 100 to 1000 nM | 164 to 167 °C | 1000 to 6000 nM |
| c1ccc2c(Nc3cc(C4CC4)[nH]n3)nc(Nc3ccc4c(c3)CCC4)nc2c1 [IIc-21, (5-Cyclopropyl-2H-pyrazol-3-yl)-[2-(indan-5-ylamino)-quinazolin-4-yl]-amine] | < 100 nM | < 100 nM | < 100 nM | 199 to 204 °C |  |
| COc1cccc(Nc2nc(Nc3cc(C4CC4)[nH]n3)c3ccccc3n2)c1 [IIc-44, (5-Cyclopropyl-2H-pyrazol-3-yl)-[2-(3-methoxyphenylamino)-quinazolin-4-yl]-amine] | < 100 nM | < 100 nM | 100 to 1000 nM | 207 to 211 °C |  |
| CCc1cccc(Nc2nc(Nc3cc(C4CC4)[nH]n3)c3ccccc3n2)c1 [IIc-41, (5-Cyclopropyl-2H-pyrazol-3-yl)-[2-(3-ethylphenylamino)-quinazolin-4-yl]-amine] | < 100 nM | < 100 nM | 100 to 1000 nM | 186 to 188 °C |  |
